Patent US20230365608A1 (priority 2019, published 2023)

Tests used:
[1] = tested on: Influenza strains A/WSN/33 (H1N1); test: Influenza A/WSN/33 (H1N1) antiviral assay in MDCK cells (MUNANA neuraminidase readout); assay type: cell-based; settings: Influenza A virus, in Canis lupus familiaris, compound 24 h before infection, 250 IU/well, 20 h infection
Method: (§1) EC50 [uM] as Measured Using Two Cell Lines: WSN/33 (H1N1) A549 and MDCK
2. Alternatively, Madin-Darby canine kidney epithelial cells (MDCK, ATCC), were plated at a density of 7.5×10^4 cells/ml (7.5×10^3 cells/well) in maintenance media (DMEM with same supplements as above) in 96-well plates. After 24 hours, serially diluted compounds in assay media (MEM supplemented with 0.3FBS, 1% penicillin/streptomycin, 1% HEPES, 1% Glutamine and 1% non-essential amino acids) were added to cells and incubated for an additional 24 hours. Cells were infected with 250 IU/well of Influenza strains A/WSN/33 (H1N1) and incubated for 20 h at 37° C., 5% CO2. The cell culture supernatant was aspirated off and 50 μL 25 μM 2′-(4-Methylumbelliferyl)-a-D-N-acetyl neuraminic acid (MUNANA, Sigma-Aldrich) dissolved in 33 mM MES, pH 6.5 (Emerald Biosystems, Bainbridge Island, WA) was added to the cells. After incubation for 45 min at 30° C., reactions were stopped by addition of 150 μl stop solution (100 mM glycine, pH 10.5, 25% ethanol, all Sigma-Aldrich). Fluorescence was measured with excitation and emission filters of 355 and 460 nm, respectively, on a Victor X3 multi-label plate reader (Perkin Elmer, Waltham, MA). Cytotoxicity of uninfected parallel cultures was determined by addition of 100 μL CellTiter-Glo® reagent (Promega, Madison, WI), and incubation for 10 min at room temperature. Luminescence was measured on a Victor X3 multi-label plate reader.

[2] = tested on: Influenza strains A/WSN/33 (H1N1); test: Influenza A/WSN/33 (H1N1) antiviral assay in A549 cells (MUNANA neuraminidase readout); assay type: cell-based, Influenza A virus (H1N1); human lung carcinoma A549 cells; settings: Influenza A virus, compound 24 h before infection, 250 IU/well, 20 h infection
Method: as §1
1. Human lung carcinoma A549 cells (ATCC, Manassas, VA) were plated at a density of 5×10^4 cells/ml (5×10^3 cells/well) in maintenance media (Ham's F12 media supplemented with 10% FBS, 1% penicillin/streptomycin, 1% HEPES, 1% Glutamine and 1% non-essential amino acids (all Mediatech, Manassas, VA) in 96-well plates. After 24 hours, serially diluted compounds in assay media (Ham's F12 supplemented with 0.3FBS, 1% penicillin/streptomycin, 1% HEPES, 1% Glutamine and 1% non-essential amino acids) were added to cells and incubated for an additional 24 hours. Cells were infected with 250 IU/well of Influenza strains A/WSN/33 (H1N1) (Virapur, San Diego CA) and incubated for 20 h at 37° C., 5% CO2. The cell culture supernatant was aspirated off and 50 μl 25 μM 2′-(4-Methylumbelliferyl)-a-D-N-acetylneuraminic acid (MUNANA, Sigma-Aldrich) dissolved in 33 mM MES, pH 6.5 (Emerald Biosystems, Bainbridge Island, WA) was added to the cells. After incubation for 45 min at 30° C., reactions were stopped by addition of 150 μL stop solution (100 mM glycine, pH 10.5, 25% ethanol, all Sigma-Aldrich). Fluorescence was measured with excitation and emission filters of 355 and 460 nm, respectively, on a Victor X3 multi-label plate reader (Perkin Elmer, Waltham, MA). Cytotoxicity of uninfected parallel cultures was determined by addition of 100 μL CellTiter-Glo® reagent (Promega, Madison, WI), and incubation for 10 min at room temperature. Luminescence was measured on a Victor X3 multi-label plate reader.

Row | SMILES | EC50 [1] [µM] | EC50 [2] [µM]
1 | NC(=O)c1cc([C@@H]2O[C@H](CO)[C@@H](O)[C@H]2O)sn1 [Example 2, 5-((2R,3R,4S,5R)-3,4-Dihydroxy-5-(hydroxymethyl)tetrahydrofuran-2-yl)isothiazole-3-carboxamide] | 0.32 | 54.7
2 | CC(C)OC(=O)OCOP(=O)(OCOC(=O)OC(C)C)OC[C@H]1O[C@@H](c2nc(C(N)=O)ns2)[C@H](O)[C@@H]1O [Example 6] | 1.85 | 4.66
3 | NC(=O)c1nsc([C@@H]2O[C@H](CO)[C@@H](O)[C@H]2O)n1 [Example 1, 5-((2R,3R,4S,5R)-3,4-Dihydroxy-5-(hydroxymethyl)tetrahydrofuran-2-yl)-1,2,4-thiadiazole-3-carboxamide] |  | 1.35
4 | CC(C)[C@H](N)C(=O)OC[C@H]1O[C@@H](c2nc(C(N)=O)ns2)[C@H](O)[C@@H]1O [Example 7, ((2R,3S,4R,5R)-5-(3-Carbamoyl-1,2,4-thiadiazol-5-yl)-3,4-dihydroxytetrahydrofuran-2-yl)methyl valinate] |  | 1.35
5 | CC(C)C(=O)OC[C@H]1O[C@@H](c2nc(C(N)=O)ns2)[C@H](O)[C@@H]1O [Example 4, ((2R,3S,4R,5R)-5-(3-Carbamoyl-1,2,4-thiadiazol-5-yl)-3,4-dihydroxytetrahydrofuran-2-yl)methyl isobutyrate] |  | 15.1
6 | NC(=O)c1nc([C@@H]2O[C@H](CO)[C@@H](O)[C@H]2O)sc1F [Example 3, 2-((2R,3R,4S,5R)-3,4-Dihydroxy-5-(hydroxymethyl)tetrahydrofuran-2-yl)-5-fluorothiazole-4-carboxamide] | 10.1 | 40.7
